Publication PMC11346426, “1-Deoxy-D-xylulose 5-phosphate reductoisomerase as target for anti Toxoplasma gondii agents: crystal structure, biochemical characterization and biological evaluation of inhibitors” (Biochemical Journal, 2024)
Where two headings read alike, the source gives them in different places.

B1: TgDXR (Toxoplasma gondii ME49) (protein)
chain: PSTRVKRLVVLGSTGSIGKSTLEIAREFPDIFQIVGLAAGGSNLALLAEQVAAFRPQYVYLGDSSKVAELQERLNDHERSAAFPRPRLLLGDEGLAELACVPNYDILVSAIVGFKGVLPTLKALEAGKDVALANKEALVAAGPVFRCLLSTRGLLYGDQERQDRHERSHRSGDQEGDREEDTDGDRREECDKRRAKAGQKCGLLLPVDSEHSAIFQALQGVPASCYPPRKLLLTASGGPFRGRTRDELEQVTLESALKHPKWSMGAKITIDSATLMNKGLEVIEAHFAFGCPYSSIEVLVHPQAVIHSAVELRDGATLAQLGLPDMKLPIAYALTWPHRLAAPWSAGVDLTREGNLTFEKPDLNTFGCLGLAYEAGERGGVAPACLNAANEVAVERFRNKEIGFVDIEDTVRHVMALQERERDNFSDVSLQDVFDADHWARTAARAFKPRK

Tests used:
[1] = MTT cytotoxicity assay on host cells; format: cell-based; conditions: human, Hs27 fibroblasts, 24 h incubation
Procedure: The method based on the reduction of the tetrazolium dye MTT [3-(4,5-dimethylthiazole-2-yl)-2,5-diphenyltetrazolium bromide] to its purple insoluble formazan by mitochondrial NAD(P)H-dependent cellular oxidoreductase enzymes in living cells, previously described by Mosmann was employed to assess the cytotoxic effects of the examined DXR inhibitors on the host cells, as previously described [[78–80]]. Briefly, Hs27 cells were cultured in 96-well plates at a concentration of 5 × 10^4/well in (IMDM, Gibco–Thermo Fisher Scientific, Waltham, MA, U.S.A., #12440053) with a volume of 100 µl per well and incubated at 37°C overnight. Then, eleven two-fold serially diluted concentrations of the investigated compounds ranging from […] were prepared and added to each well. Hs27 cells were then incubated for 24 h in humidified atmosphere of 5% CO2 in air. Controls included wells containing medium alone without cells (blank), untreated Hs27 cells, DMSO (negative control) and staurosporine (0.031, 0.062, 0.125, 0.25, 0.5, 1 µM) (Merck, Darmstadt, Germany, #S4400) as apoptosis inducer. After incubation, the culture media was replaced with 100 µl of DMEM medium without phenol (Gibco-Thermo Fisher Scientific, Waltham, MA, U.S.A., #21041025) plus 10% heat-inactivated (FBS Standard, South America origin, FBS, 2 µm sterile filtered, PAN-Biotech, Aidenbach, Germany, #P30-3306), and […] 2-mercaptoethanol (Gibco-Thermo Fisher Scientific, Waltham, MA, U.S.A., #21985023). Thereafter, the MTT reagent was added to each well and analysis conducted following the manufacture instructions (CyQuant MTT Cell Viability Assay Kit, Thermo Fisher Scientific, Waltham, MA, U.S.A., #V-13154). The absorbance was measured at 570 nm on an ELISA microplate reer (TECAN Sunrise, Männedorf, Switzerland) and the percentage of viability was calculated when compared with the untreated control. The data set was subsequently adjusted by applying blank correction. Cell viability values expressed as percentage of the negative control value were calculated as follows: %Cellviability=meanabsorbanceoftreatedwells−blank/meanabsorbanceofnegativecontrol−blank×100. The cytotoxicity of each compound was expressed as half maximal cytotoxic concentration (CC50 values) against Hs27 cells. These values were calculated by a non-linear regression using GraphPad PRISM™ statistics software package (Version 9.5.1; San Diego, CA, U.S.A.) plotting the percentage viability against the log of compound concentrations.

[2] = system: T. gondii ME49 tachyzoites; test: T. gondii in vitro growth assay ([3H]-uracil incorporation); format: cell-based, Toxoplasma gondii; conditions: for activity against T. gondii growth (in words): T. gondii type II ME49 strain, [3H]-uracil incorporation; for IC50: Toxoplasma gondii, T. gondii type II ME49 strain in Hs27 host cells, n = 6
Procedure: With the aim to assess the inhibitory in vitro effect on parasite growth, T. gondii growth assays were performed as described previously [[78-80]]. Compounds, previously diluted in culture media in appropriate stock solutions, were added to confluent monolayers of Hs27 cells in 96-flat well plates at various concentrations. Then, freshly harvested tachyzoites were added to the cultures at a multiplicity of infection of 1:1 (parasite/host cell ratio). As controls, untreated and uninfected Hs27 cells, 24 h pre-stimulated and T. gondii infected cells with human interferon γ (IFN γ) (300 U/ml) (Merck, Darmstadt, Germany, #I17001) and T. gondii infected cells only were employed. After 48 h incubation, proliferating toxoplasmas were labelled with 0.3 μCi/well of tritiated uracil (^3H-U; 5 mCi, Hartmann Analytic, Braunschweig, Germany, #ART1782). After 28-30 h of incubation, plates were frozen at -20°C overnight. Cells were then thawed and harvested (Basic96 Harvester; Zinsser Analytic, Skatron Instruments, Northridge, CA, U.S.A.), purified with glass fibre filters (Printed Filtermat A 102 mm × 258 mm; PerkinElmer, Waltham, MA, U.S.A.) and dried at 130°C for 15-20 min. Dried filters were then wrapped into transparent plastic covers, dunked with 10 ml scintillation cocktail (Betaplate Scint; PerkinElmer, Waltham, MA, U.S.A., #1205-440), sealed and then loaded into metal cassettes and the incorporation of ^3H-uracil into the RNA of proliferating toxoplasmas was measured using a β-counter, a liquid scintillation counter that measure the […] (Betaplate Liquid Scintillation Counter 1205; LKB-[…], Melbourne, Australia). All data sets were normalized to 100% of the positive control. The dose-response curves of the compounds were fitted by means of the statistics software GraphPad PRISMTM (Version 9.5.1; San Diego, CA, U.S.A.). The minimal concentrations of compounds required for 50% inhibition of the parasite (IC50 values) were determined by non-linear regression analysis. Pyrimethamine was used as reference anti-toxoplasma compound.

human fibroblasts Hs27 = test: MTT cytotoxicity assay on host cells; format: cell-based; conditions: concentration range 0.19–200 µM
TgDXR [3] = target: T1, TgDXR (Toxoplasma gondii, UniProt S8ESX0); test: T. gondii DXR enzyme inhibition assay (NADPH oxidation, absorption at 340 nm); format: biochemical; conditions: for Ki: Ki = IC50/(1 + [S]/Km), [S] = 100 µM DXP, Km = 30.58 µM
Procedure: The enzymatic assays were conducted at 30°C in 96 well plates using a total reaction volume of 150 µl containing 100 nM of purified TgDXR protein in dimeric state, 100 µM of NADPH and 4 mM of MgCl2 as cofactors, 100 µM of DXP as substrate in 50 mM HEPES buffer (pH 7.5) containing 50 µg/ml of BSA. For the screening, DXR inhibitors were tested for their inhibitory activity and their IC50 measurements at concentrations ranging from 100 µM to 3.05 nM, in dilution steps 1:2.
To optimize and to ensure the interaction of NADPH and its enzyme binding pocket, the assay solution was incubated for 10 min at 37°C. Then, the reaction was commenced with the addition of 100 µM of DXP to the complete assay mixture. The reaction was monitored by measuring the absorption at 340 nm every minute for 1 h using a microplate reader (Tecan® 200 Pro, Tecan Group, Männedorf, Switzerland). The initial velocity of the reactions were calculated, the values were then used in the software GraphPad PRISM™ (Version 9.5.1; San Diego, CA, U.S.A.) for determinations of the IC50 values.

TgDXR [4] = target: T1, TgDXR; test: TgDXR enzyme kinetic characterization (Michaelis-Menten); format: biochemical; conditions: 100 nM TgDXR, substrate or cofactor varied 7.8 to 500 µM; n = 8
Procedure: (§1) To biochemically characterize the catalytic ability of the truncated TgDXR for the conversion of DXP into MEP in the presence of the cofactors Mg^2+ and NADPH, and to determine the optimum conditions for maximum enzyme activity, the enzymatic assays were monitored at 340 nm (maximal absorbance of NADPH) in different conditions.
(§2) The enzymatic activity was evaluated in fixed conditions, using 50 mM HEPES buffer containing 50 µg/ml of bovine serum albumin (BSA) containing 100 nM of purified TgDXR protein in dimeric state. In each experimental evaluation, only one parameter was varied: either the substrate (DXP) concentration (ranging from 7.8 to 500 µM), or the cofactor NADPH (ranging from 7.8 to 500 µM), or Mg^2+ concentration (ranging from 1 to 6 mM) or the pH (ranging from 5.5 to 9) (Figure 3).
(§3) For the determination of the kinetic parameters, various concentration of the substrate DXP or NADPH were employed for the determination of the apparent Km (substrate concentration that yield a half-maximal velocity) and Vmax (maximum velocity) for the enzyme. These parameters were calculated by a non-linear regression with the software GraphPad PRISM™ (Version 9.5.1; San Diego, CA, U.S.A.) plotting the initial velocity of the reactions and using the Michaelis–Menten model (Figure 3).

[5] = substrate: CC(=O)[C@@H](O)[C@H](O)COP(=O)(O)O; test: as above; format: biochemical, Toxoplasma gondii; conditions: other: 100 nM TgDXR, substrate or cofactor varied 7.8 to 500 µM; n = 8
Procedure: as §1, §2, §3

[6] = 100 nM truncated His10-TgDXR, 100 µM NADPH, 4 mM MgCl2, 100 µM DXP, pH 7.5, 30°C, n = 6, read-out: IC50 ± S.D.

Molecule	CC50 at 24 h [1] [µM]	activity against T. gondii growth (in words) [2]	IC50 [2] [µM]	host cell cytotoxicity (in words) (human fibroblasts Hs27)	IC50 (TgDXR [3]) [µM]	IC50 (TgDXR [3]; [6]) [µM]	Ki (TgDXR [3]) [µM]	Km (TgDXR [4]) [µM]	Km [5] [µM]
O=CN(O)CCCP(=O)(O)O [Compound 1, Fosmidomycin, reference compound]	> 200	no activity	> 200	did not show any detectable host cytotoxicity	1.03 ± 0.21	–	–	–	–
CN(O)C(=O)CSC(c1ccccc1)P(=O)(O)O (stereo not drawn) [Compound 2, (((2-(hydroxy(methyl)amino)-2-oxoethyl)thio)(phenyl)methyl)phosphonic acid]	> 200	–	> 100	–	–	1.23 ± 0.12	0.37	–	–
CN(O)C(=O)CSC(c1ccc(F)c(F)c1)P(=O)(O)O (stereo not drawn) [Compound 3, ((3,4-difluorophenyl)((2-(hydroxy(methyl)amino)-2-oxoethyl)thio)methyl)phosphonic acid]	> 200	demonstrated activity	14.4 ± 1.94	–	–	0.64 ± 0.38	0.19	–	–
CN(O)C(=O)CSC(c1ccc(Cl)c(Cl)c1)P(=O)(O)O (stereo not drawn) [Compound 4, ((3,4-dichlorophenyl)((2-(hydroxy(methyl)amino)-2-oxoethyl)thio)methyl)phosphonic acid]	> 200	demonstrated activity	5.46 ± 1.22	–	–	0.62 ± 0.12	0.19	–	–
CN(O)C(=O)CSC(c1cc(F)cc(F)c1)P(=O)(O)O (stereo not drawn) [Compound 5, ((3,5-difluorophenyl)((2-(hydroxy(methyl)amino)-2-oxoethyl)thio)methyl)phosphonic acid]	> 200	demonstrated activity	56 ± 6.11	–	–	2.45 ± 0.54	0.74	–	–
COc1cc(OC)cc(C(SCC(=O)N(C)O)P(=O)(O)O)c1 (stereo not drawn) [Compound 6, ((3,5-dimethoxyphenyl)((2-(hydroxy(methyl)amino)-2-oxoethyl)thio)methyl)phosphonic acid]	> 200	demonstrated activity	12.5 ± 5.56	–	–	3.9 ± 1.06	1.18	–	–
CN(O)C(=O)COC(c1ccccc1)P(=O)(O)O (stereo not drawn) [Compound 7, ((2-(hydroxy(methyl)amino)-2-oxoethoxy)(phenyl)methyl)phosphonic acid]	> 200	demonstrated activity	48.2 ± 8.56	–	–	5.82 ± 1.52	–	–	–
CN(O)C(=O)COC(c1ccc(F)c(F)c1)P(=O)(O)O (stereo not drawn) [Compound 8, ((3,4-difluorophenyl)(2-(hydroxy(methyl)amino)-2-oxoethoxy)methyl)phosphonic acid]	> 200	–	> 100	–	–	52.14 ± 0.34	–	–	–
CN(O)C(=O)COC(c1ccc(Cl)c(Cl)c1)P(=O)(O)O (stereo not drawn) [Compound 9, ((3,4-dichlorophenyl)(2-(hydroxy(methyl)amino)-2-oxoethoxy)methyl)phosphonic acid]	> 200	–	> 100	–	–	2.44 ± 0.43	0.74	–	–
Cc1ccc(C(OCC(=O)N(C)O)P(=O)(O)O)cc1 (stereo not drawn) [Compound 10, ((2-(hydroxy(methyl)amino)-2-oxoethoxy)(p-tolyl)methyl)phosphonic acid]	> 200	–	> 100	–	–	7.68 ± 0.87	2.51	–	–
CCc1nc(N)nc(N)c1-c1ccc(Cl)cc1 [Pyrimethamine, pyrimethamine, reference compound]	> 100	–	0.22 ± 0.05	–	–	–	–	–	–
NADPH	–	–	–	–	–	–	–	51.3 ± 11.8	–
B1	–	–	–	–	–	–	–	–	30.58 ± 6.33
